Test results: US12466839B2, “Allosteric AKT inhibitors for use in the treatment of Hereditary Hemorrhagic Telangiectasia” (VADERIS THERAPEUTICS AG, priority 2020, dated 2025)

Assays:
PAC1 = biological target: T1, PAC1 (Homo sapiens, UniProt P41586); test: Millipore Drug Discovery Safety and Liability Panel; format: cell-based
T1 construct: Millipore

CB2 = biological target: T2, CB2 (Homo sapiens, UniProt P34972); test: as above; format: cell-based
T2 construct: purchased Millipore

MC5 = biological target: T3, MC5 (Homo sapiens, UniProt P33032); test: as above; format: cell-based
T3 construct: purchased Millipore

full length AKT2 = full length AKT2 (Homo sapiens, UniProt P31751); test: Biochemical kinase assay
CXCR1 = biological target: T4, CXCR1 (Homo sapiens, UniProt P25024); test: Millipore Drug Discovery Safety and Liability Panel; format: cell-based
T4 construct: purchased Millipore
T4 sequence (P25024 whole entry): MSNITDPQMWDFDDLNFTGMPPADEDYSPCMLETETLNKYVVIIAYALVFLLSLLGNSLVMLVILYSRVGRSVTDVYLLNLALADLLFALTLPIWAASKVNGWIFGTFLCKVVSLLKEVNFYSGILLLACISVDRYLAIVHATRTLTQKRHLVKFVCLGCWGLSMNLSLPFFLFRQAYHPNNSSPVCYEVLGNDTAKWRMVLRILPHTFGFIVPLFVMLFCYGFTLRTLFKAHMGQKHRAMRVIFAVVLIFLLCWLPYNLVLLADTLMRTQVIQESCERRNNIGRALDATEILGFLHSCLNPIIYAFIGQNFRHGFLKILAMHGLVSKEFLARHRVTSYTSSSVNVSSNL

M3 = biological target: T5, M3 (Homo sapiens, UniProt P20309); test: as above; format: cell-based
T5 construct: purchased Millipore
T5 sequence (P20309 whole entry): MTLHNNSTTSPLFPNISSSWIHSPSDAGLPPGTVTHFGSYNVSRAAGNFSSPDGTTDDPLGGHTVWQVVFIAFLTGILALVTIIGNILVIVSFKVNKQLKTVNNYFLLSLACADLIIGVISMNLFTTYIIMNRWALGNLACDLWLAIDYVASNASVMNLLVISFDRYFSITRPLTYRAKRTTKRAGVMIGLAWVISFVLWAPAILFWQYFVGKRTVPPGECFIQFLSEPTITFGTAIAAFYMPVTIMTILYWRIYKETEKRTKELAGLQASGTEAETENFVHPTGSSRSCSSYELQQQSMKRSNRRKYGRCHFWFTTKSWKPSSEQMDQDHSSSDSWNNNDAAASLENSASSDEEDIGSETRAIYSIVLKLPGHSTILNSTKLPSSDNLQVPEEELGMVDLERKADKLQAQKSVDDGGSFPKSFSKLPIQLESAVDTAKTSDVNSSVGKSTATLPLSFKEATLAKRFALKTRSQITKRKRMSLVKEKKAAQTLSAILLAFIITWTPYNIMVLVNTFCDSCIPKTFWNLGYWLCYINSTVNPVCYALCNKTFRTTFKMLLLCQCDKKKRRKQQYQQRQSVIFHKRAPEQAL

PDK1 = PDK1 (Homo sapiens, UniProt O15530); test: Panel of 450 kinases and 10-point titration curve; format: biochemical
M1 = biological target: T6, M1 (Homo sapiens, UniProt P11229); test: Millipore Drug Discovery Safety and Liability Panel; format: cell-based
T6 construct: purchased Millipore
T6 sequence (P11229 whole entry): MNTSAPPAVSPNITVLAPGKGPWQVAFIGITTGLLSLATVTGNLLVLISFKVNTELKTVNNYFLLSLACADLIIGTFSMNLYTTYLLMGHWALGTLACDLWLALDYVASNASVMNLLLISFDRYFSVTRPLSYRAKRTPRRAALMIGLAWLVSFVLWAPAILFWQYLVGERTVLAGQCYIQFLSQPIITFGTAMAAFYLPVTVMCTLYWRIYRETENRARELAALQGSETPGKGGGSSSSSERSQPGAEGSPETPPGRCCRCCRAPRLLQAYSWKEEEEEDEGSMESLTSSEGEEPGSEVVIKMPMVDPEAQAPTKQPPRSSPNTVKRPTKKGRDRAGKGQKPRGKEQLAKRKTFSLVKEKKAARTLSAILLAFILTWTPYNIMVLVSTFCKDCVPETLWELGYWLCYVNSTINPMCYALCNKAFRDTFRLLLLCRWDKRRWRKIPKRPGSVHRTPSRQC

OX1 = biological target: T7, OX1 (Homo sapiens, UniProt O43613); test: as above; format: cell-based
T7 construct: Millipore

AKT2 = AKT2 (Homo sapiens, UniProt P31751); test: Panel of 450 kinases; format: biochemical
FPR1 = biological target: T8, FPR1 (Homo sapiens, UniProt P21462); test: Millipore Drug Discovery Safety and Liability Panel; format: cell-based
T8 construct: purchased Millipore

p38α = p38α (Homo sapiens, UniProt Q16539); test: Panel of 450 kinases and 10-point titration curve; format: biochemical
p38α, sequence (Q16539 whole entry): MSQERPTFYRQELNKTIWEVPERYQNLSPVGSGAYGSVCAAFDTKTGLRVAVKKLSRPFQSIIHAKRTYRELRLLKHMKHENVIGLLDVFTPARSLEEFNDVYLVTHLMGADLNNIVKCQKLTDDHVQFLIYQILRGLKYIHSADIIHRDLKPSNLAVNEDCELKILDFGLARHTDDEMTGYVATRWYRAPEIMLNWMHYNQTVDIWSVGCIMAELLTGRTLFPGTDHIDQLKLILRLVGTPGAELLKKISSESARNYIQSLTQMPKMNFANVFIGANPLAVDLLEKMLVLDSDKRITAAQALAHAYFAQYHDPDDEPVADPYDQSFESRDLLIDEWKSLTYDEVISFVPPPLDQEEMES

CysLT1 = biological target: T9, CysLT1 (Homo sapiens, UniProt Q9Y271); test: Millipore Drug Discovery Safety and Liability Panel; format: cell-based
T9 construct: purchased Millipore
T9 sequence (Q9Y271 whole entry): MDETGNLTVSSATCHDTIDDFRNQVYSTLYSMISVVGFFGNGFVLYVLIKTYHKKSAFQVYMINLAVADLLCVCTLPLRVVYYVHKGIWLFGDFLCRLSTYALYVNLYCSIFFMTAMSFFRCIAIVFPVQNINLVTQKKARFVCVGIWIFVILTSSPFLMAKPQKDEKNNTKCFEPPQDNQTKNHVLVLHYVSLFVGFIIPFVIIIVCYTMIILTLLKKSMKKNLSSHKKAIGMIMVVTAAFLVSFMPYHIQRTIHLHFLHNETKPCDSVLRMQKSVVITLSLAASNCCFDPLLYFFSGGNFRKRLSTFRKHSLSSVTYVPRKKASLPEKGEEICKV

KCNQ1 = KCNQ1 (Homo sapiens, UniProt P51787); test: Cardiac ion channel profile; format: cell-based
M2 = biological target: T10, M2 (Homo sapiens, UniProt P08172); test: Millipore Drug Discovery Safety and Liability Panel; format: cell-based
T10 construct: purchased Millipore
T10 sequence (P08172 whole entry): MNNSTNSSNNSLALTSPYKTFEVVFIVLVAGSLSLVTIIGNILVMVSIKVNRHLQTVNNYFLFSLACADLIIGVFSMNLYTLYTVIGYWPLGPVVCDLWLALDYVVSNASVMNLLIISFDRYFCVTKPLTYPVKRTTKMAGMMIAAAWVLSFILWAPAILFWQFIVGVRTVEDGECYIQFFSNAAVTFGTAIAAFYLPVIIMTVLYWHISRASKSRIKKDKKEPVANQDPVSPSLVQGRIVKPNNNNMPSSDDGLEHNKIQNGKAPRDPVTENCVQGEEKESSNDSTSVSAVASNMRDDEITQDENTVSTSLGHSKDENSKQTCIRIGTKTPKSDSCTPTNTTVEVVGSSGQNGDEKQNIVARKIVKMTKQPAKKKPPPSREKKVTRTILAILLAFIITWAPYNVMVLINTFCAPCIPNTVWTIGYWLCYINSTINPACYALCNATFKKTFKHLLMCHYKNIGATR

OT = biological target: T11, OT (Homo sapiens, UniProt P30559); test: as above; format: cell-based
T11 construct: Millipore
T11 sequence (P30559 whole entry): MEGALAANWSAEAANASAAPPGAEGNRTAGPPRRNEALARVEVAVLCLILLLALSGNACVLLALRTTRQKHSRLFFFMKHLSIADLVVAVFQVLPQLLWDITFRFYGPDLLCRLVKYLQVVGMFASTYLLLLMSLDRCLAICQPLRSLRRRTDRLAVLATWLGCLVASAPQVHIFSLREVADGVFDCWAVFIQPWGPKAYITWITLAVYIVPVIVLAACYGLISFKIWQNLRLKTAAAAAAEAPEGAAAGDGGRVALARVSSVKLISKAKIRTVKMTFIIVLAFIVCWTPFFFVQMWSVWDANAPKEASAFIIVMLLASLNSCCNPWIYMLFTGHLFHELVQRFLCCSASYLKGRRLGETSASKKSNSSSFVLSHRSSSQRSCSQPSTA

Nav1.5 = Nav1.5 (Homo sapiens, UniProt Q14524); test: Cardiac ion channel profile; format: cell-based
ADRA1A = biological target: T12, ADRA1A (Homo sapiens, UniProt P35348); test: Millipore Drug Discovery Safety and Liability Panel; format: cell-based
T12 construct: purchased Millipore
T12 sequence (P35348 whole entry): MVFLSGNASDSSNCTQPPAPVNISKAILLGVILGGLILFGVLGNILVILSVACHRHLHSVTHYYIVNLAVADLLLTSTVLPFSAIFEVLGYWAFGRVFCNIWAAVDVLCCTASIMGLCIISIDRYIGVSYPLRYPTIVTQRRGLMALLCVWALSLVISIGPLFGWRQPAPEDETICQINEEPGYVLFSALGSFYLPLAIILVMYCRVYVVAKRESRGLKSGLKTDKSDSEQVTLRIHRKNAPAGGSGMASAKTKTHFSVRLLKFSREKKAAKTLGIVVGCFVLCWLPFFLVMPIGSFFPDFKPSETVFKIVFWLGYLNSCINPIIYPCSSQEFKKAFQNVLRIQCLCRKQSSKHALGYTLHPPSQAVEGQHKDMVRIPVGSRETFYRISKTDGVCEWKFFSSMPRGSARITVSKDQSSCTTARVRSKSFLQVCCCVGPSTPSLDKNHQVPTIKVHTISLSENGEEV

p42/p44 (MAPK pathway) = test: p42/p44 phosphorylation in primary lung endothelial cells (selectivity control); format: cell-based, mouse; details: control for selectivity
Protocol: ECs were seeded in six-well plates and allowed to grow to 90% confluence. Cells were then washed with PBS and serum starved for six hours. […] Cells were washed with cold PBS and then lysed in RIPA Buffer (50 mM Tris-HCl pH 7.4, 150 mM NaCl, 1 mM Ethylene diamine tetra-acetic acid (EDTA), 1% Triton X-100, 0.1% Sodium Dodecyl Sulfate (SDS), 0.5% deoxycholate) containing protease and phosphatase inhibitors (PPC1010, Sigma-Aldrich).
Samples were boiled for 10 min and proteins were separated on 10% acrylamide gel and transferred onto nitrocellulose membrane before blocking with 5% BSA or 5% powdered milk/Tris-buffered saline/Tween and incubated with the following primary antibodies: rabbit anti-Phospho-Akt1 (Ser473) (44-621G, Invitrogen), rabbit anti-Akt1 (2938S, Cell Signaling), rabbit anti-PhosphoSmad1/5 (Ser463/465) (9516S, Cell Signaling), rabbit anti-Smad1 (6944S, Cell Signaling), mouse anti-Phospho-p44/42 MAPK (Thr202/Tyr204) (E10) (9106S, Cell signaling), rabbit p44/42 MAPK (Erk1/2) (9102S, Cell Signaling), goat anti-Endoglin (AF1097, R&D systems) and mouse anti-β-actin (A5441, Sigma-Aldrich). Detection was achieved using HRP anti-rabbit IgG or HRP anti-mouse IgG (W4011 or W4021 respectively, Promega) or HRP anti-goat IgG (HAF017, R&D systems) followed by scanning on BIO-RAD ChemiDoc imager. […]

AKT1 = AKT1 (Homo sapiens, UniProt P31749); test: Panel of 450 kinases; format: biochemical
H1 = biological target: T13, H1 (Homo sapiens, UniProt P35367); test: Millipore Drug Discovery Safety and Liability Panel; format: cell-based
T13 construct: purchased Millipore

VPAC1 = biological target: T14, VPAC1 (Homo sapiens, UniProt P32241); test: as above; format: cell-based
T14 construct: Millipore
T14 sequence (P32241 31-457): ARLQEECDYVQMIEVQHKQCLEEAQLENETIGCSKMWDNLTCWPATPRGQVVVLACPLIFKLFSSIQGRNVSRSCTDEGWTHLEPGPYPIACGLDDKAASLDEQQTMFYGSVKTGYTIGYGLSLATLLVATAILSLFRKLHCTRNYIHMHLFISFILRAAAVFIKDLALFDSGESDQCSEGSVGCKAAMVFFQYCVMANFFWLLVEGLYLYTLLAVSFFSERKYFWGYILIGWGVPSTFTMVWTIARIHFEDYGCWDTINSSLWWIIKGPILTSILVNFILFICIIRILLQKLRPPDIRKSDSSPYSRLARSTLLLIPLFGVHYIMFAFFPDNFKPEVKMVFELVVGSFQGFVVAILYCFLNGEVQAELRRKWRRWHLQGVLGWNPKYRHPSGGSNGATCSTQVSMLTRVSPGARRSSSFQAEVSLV

V1A = biological target: T15, V1A (Homo sapiens, UniProt P37288); test: as above; format: cell-based
T15 construct: Millipore

[1] = read-out: ANTAGONIST mean % inhibition
[2] = read-out: AGONIST mean % increase in activity

T1 sequence (P41586 21-468): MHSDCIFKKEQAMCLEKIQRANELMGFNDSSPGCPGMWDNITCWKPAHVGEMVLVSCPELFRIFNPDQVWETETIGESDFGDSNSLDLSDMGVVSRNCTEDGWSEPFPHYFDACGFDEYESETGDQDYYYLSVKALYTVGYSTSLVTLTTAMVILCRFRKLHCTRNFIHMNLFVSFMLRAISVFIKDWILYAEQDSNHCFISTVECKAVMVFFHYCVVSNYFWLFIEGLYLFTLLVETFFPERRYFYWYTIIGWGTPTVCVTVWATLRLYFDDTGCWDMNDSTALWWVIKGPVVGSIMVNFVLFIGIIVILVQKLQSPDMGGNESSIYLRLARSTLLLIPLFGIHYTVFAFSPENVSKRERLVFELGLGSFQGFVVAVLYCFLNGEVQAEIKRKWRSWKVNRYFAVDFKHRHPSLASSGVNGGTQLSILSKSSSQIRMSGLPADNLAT
T2 sequence (P34972 whole entry): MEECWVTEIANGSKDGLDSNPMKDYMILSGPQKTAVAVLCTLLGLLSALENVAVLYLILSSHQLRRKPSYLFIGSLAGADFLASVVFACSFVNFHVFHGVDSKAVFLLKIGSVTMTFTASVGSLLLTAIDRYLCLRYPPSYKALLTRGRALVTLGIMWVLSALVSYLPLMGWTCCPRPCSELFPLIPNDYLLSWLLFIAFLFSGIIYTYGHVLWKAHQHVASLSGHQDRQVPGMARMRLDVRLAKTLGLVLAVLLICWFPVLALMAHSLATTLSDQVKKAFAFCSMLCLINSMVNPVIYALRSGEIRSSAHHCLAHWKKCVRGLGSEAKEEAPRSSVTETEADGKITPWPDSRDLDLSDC

Q: How did the activation at 10 µM (PAC1; PAC1, 10 μM, read-out: AGONIST mean % increase in activity) turn out when `CCN1C(=O)COc2nc(-c3ccc(C4(N)CC(O)C4)cc3)c(-c3ccccc3)cc21.O=C(O)C(O)C(O)C(=O)O` [VAD044, 6-(4-(1-amino-3-hydroxycyclobutyl)phenyl)-1-ethyl-7-phenyl-1H-pyrido[2,3-b][1,4]oxazin-2(3H)-one L-tartrate] was run?
A: -0.6%

Q: And the inhibition at 10 µM (PAC1; [1])?
A: 1.1%

Q: What about the activation at 10 µM (CB2; CB2, 10 μM, read-out: AGONIST mean % increase in activity) of the same molecule?
A: -0.9%

Q: And the inhibition at 10 µM (CB2; [1])?
A: 10.6%

Q: What about the activation at 10 µM (MC5; MC5, 10 μM, read-out: AGONIST mean % increase in activity) of the same molecule?
A: -0.2%

Q: What about the inhibition at 10 µM (MC5; [1]) of the same molecule?
A: 8.4%

Q: What about the IC50 (full length AKT2) of the same molecule?
A: 0.095 µM

Q: What about the activation at 10 µM (CXCR1; CXCR1, 10 μM, read-out: AGONIST mean % increase in activity) of the same molecule?
A: -0.3%

Q: And the inhibition at 10 µM (CXCR1; [1])?
A: 3.7%

Q: And the activation at 10 µM (M3; M3, 10 μM, read-out: AGONIST mean % increase in activity)?
A: -0.5%

Q: And the inhibition at 10 µM (M3; [1])?
A: 5.3%

Q: And the inhibition at 10 µM (PDK1; 10 μM)?
A: 77%

Q: And the IC50 (PDK1; 10-point titration curve)?
A: > 10 µM

Q: And the activation at 10 µM (M1; M1, 10 μM, read-out: AGONIST mean % increase in activity)?
A: -0.7%

Q: What about the inhibition at 10 µM (M1; [1]) of the same molecule?
A: -3.4%

Q: And the activation at 10 µM (OX1; OX1, 10 μM, read-out: AGONIST mean % increase in activity)?
A: -1.8%

Q: What about the inhibition at 10 µM (OX1; [1]) of the same molecule?
A: -3.8%

Q: What about the inhibition at 10 µM (AKT2) of the same molecule?
A: 95%

Q: What about the activation at 10 µM (FPR1; FPR1, 10 μM, read-out: AGONIST mean % increase in activity) of the same molecule?
A: -0.1%

Q: And the inhibition at 10 µM (FPR1; [1])?
A: 13.3%

Q: And the inhibition at 10 µM (p38α; 10 μM)?
A: 84%

Q: And the IC50 (p38α; 10-point titration curve)?
A: > 10 µM

Q: And the activation at 10 µM (CysLT1; CysLT1, 10 μM, read-out: AGONIST mean % increase in activity)?
A: -0.8%

Q: What about the inhibition at 10 µM (CysLT1; [1]) of the same molecule?
A: 1.5%

Q: And the inhibition at 10 µM (KCNQ1)?
A: < 25%

Q: What about the activation at 10 µM (M2; [2]) of the same molecule?
A: 0%

Q: And the inhibition at 10 µM (M2; [1])?
A: 20.6%

Q: And the activation at 10 µM (OT; [2])?
A: -1.2%

Q: What about the inhibition at 10 µM (OT; [1]) of the same molecule?
A: 29.5%

Q: What about the inhibition at 10 µM (Nav1.5) of the same molecule?
A: < 25%

Q: What about the activation at 10 µM (ADRA1A; ADRA1A, 10 μM, read-out: AGONIST mean % increase in activity) of the same molecule?
A: -0.7%

Q: What about the inhibition at 10 µM (ADRA1A; [1]) of the same molecule?
A: 9.9%

Q: And the “impact on the MAPK pathway (p42/p44 phosphorylation)” value (p42/p44 (MAPK pathway))?
A: no impact on the MAPK pathway

Q: What about the inhibition at 10 µM (AKT1) of the same molecule?
A: 89%

Q: And the activation at 10 µM (H1; H1, 10 μM, read-out: AGONIST mean % increase in activity)?
A: -0.2%

Q: What about the inhibition at 10 µM (H1; [1]) of the same molecule?
A: 3.8%

Q: What about the activation at 10 µM (VPAC1; VPAC1, 10 μM, read-out: AGONIST mean % increase in activity) of the same molecule?
A: -0.7%

Q: And the inhibition at 10 µM (VPAC1; [1])?
A: 8.5%

Q: And the activation at 10 µM (V1A; V1A, 10 μM, read-out: AGONIST mean % increase in activity)?
A: -1.5%

Q: What about the inhibition at 10 µM (V1A; [1]) of the same molecule?
A: 2.5%
